Laboratory results from ChEMBL document CHEMBL1201862, “PubChem BioAssay data set” (2004).
Calls of active or inactive are those of the source.

Assays:
[1] = molecular target: Neuropeptides B/W receptor type 1 (Homo sapiens, UniProt P48145); experiment: Fluorescence-based dose response cell-based high throughput screening assay to identify antagonists of the G-protein coupled receptor 7 (GPR7). [Related pubchem assays: 1952 (Screening assay (GPR7 antagonists).), 1880 (Summary AID.)]; type: functional
[2] = molecular target: Melanin-concentrating hormone receptor 1 (Homo sapiens, UniProt Q99705); experiment: Fluorescence-based counterscreen for antagonists of the G-protein coupled receptor 7 (GPR7): cell-based high throughput dose response assay to identify antagonists of the melanin-concentrating hormone receptor 1 (MCHR1).; type: functional
[3] = molecular target: Nucleotide-binding oligomerization domain-containing protein 2 (Homo sapiens, UniProt Q9HC29); experiment: PubChem AID 2334; type: functional
[4] = molecular target: T1, Corticotropin-releasing factor receptor 2/Corticotropin-releasing factor-binding protein (Homo sapiens, UniProt P24387+Q13324); experiment: activators of CRF receptor 2 with binding protein – uHTS hits, confirmation (AID 602473); type: functional; conditions: read-out: EC50_Mean
T1 sequence (Q13324 whole entry): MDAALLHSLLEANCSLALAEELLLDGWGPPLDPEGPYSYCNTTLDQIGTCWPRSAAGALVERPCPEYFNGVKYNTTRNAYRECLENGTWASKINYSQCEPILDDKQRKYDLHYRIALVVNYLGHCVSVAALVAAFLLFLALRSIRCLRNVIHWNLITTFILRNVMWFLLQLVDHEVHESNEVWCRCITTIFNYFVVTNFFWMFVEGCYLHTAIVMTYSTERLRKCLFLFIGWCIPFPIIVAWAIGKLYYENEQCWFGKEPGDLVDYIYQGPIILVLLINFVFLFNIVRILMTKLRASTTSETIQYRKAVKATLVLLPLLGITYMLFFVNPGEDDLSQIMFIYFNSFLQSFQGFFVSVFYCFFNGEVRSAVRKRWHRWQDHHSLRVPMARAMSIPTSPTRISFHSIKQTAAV
T1 sequence (P24387 whole entry): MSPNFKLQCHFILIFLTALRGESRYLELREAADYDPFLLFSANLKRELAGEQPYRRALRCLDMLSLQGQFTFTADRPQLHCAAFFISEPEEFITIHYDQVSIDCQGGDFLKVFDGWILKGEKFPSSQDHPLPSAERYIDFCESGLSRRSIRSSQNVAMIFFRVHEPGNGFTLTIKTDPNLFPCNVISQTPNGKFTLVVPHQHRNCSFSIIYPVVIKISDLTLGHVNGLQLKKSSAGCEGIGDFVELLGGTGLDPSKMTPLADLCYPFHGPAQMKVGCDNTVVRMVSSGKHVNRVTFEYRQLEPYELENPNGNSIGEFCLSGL

[5] = molecular target: T2, Nucleotide-binding oligomerization domain-containing protein 1 (Homo sapiens, UniProt Q9Y239); experiment: blockers of NOD1 pathway activity – revised, SAR follow-up (AID 2333); type: functional
T2 sequence (Q9Y239 whole entry): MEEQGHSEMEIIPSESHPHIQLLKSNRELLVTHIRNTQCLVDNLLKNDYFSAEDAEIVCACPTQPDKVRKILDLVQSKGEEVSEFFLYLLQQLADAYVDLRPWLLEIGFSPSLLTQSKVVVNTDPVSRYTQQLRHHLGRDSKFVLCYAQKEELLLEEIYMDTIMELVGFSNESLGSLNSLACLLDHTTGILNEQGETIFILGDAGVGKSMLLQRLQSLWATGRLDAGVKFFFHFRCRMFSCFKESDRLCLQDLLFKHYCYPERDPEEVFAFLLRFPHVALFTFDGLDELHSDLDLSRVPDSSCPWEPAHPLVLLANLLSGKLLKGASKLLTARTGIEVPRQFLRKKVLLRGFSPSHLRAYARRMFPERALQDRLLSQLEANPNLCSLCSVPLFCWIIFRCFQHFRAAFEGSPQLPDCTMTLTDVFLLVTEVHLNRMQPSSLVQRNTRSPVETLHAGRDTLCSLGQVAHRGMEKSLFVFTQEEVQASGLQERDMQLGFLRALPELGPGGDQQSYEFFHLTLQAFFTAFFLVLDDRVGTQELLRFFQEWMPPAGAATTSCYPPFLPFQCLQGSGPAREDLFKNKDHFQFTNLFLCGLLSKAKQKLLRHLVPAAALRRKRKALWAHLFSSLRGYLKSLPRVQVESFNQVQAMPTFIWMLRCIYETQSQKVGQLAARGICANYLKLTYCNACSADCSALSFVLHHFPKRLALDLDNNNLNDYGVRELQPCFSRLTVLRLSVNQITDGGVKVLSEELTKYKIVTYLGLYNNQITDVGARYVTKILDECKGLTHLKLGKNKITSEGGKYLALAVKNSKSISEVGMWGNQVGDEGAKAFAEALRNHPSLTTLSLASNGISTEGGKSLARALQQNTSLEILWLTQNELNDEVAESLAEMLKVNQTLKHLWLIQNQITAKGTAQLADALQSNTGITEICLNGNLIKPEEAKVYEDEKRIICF

Streptokinase A = molecular target: T3, Streptokinase A (Streptococcus pyogenes serotype M1, UniProt P10520); experiment: viability-normalized secreted streptokinase activity reduction – plasminogen activation absorbance, OD405, dose response (AID 1914); type: functional, Streptococcus pyogenes M1 GAS;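 also: secreted streptokinase activity via plasminogen activation per viability signal from cell pellet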
T3 sequence (P10520 whole entry): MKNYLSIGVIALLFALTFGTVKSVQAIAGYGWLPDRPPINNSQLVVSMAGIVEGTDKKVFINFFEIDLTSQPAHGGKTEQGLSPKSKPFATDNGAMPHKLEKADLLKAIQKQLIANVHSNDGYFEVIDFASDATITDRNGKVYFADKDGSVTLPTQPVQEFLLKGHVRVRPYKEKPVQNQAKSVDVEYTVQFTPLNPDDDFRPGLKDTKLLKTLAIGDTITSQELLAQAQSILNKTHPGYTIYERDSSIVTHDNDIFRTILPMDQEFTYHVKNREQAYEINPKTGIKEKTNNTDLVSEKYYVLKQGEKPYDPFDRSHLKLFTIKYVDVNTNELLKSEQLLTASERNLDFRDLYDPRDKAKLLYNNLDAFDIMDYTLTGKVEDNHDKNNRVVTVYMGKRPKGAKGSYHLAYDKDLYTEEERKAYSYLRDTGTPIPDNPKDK

[6] = molecular target: T1, Corticotropin-releasing factor receptor 2/Corticotropin-releasing factor-binding protein; experiment: Dose Response confirmation of uHTS hits for small molecule antagonists of the CRF-binding protein and CRF-R2 receptor complex.; type: functional; conditions: read-out: IC50_Mean
Tumor necrosis factor = Tumor necrosis factor (Homo sapiens, UniProt P01375); experiment: analog potency on TNFa NF-kB signaling – cell-based, revised, SAR follow-up (AID 2337); type: functional
[7] = molecular target: DNA dC->dU-editing enzyme APOBEC-3G (Homo sapiens, UniProt Q9HC16); experiment: Dose Response confirmation of small molecule APOBEC3G DNA Deaminase Inhibitors via a fluorescence-based single-stranded DNA deaminase assay. [Related pubchem assays (depositor defined):AID493012, AID493028]; type: functional
[8] = molecular target: Cyclin-dependent kinase 5/CDK5 activator 1 (Homo sapiens, UniProt Q00535); experiment: blockade of human CDK5 activity – biochemical, cherry-picked samples, set 2, dose response (AID 504545)
[9] = Luminescence Cell-Based Dose Response HTS to Identify Activators of Luciferase Translation or Activity in H4 […] Cells. [Related pubchem assays: 1829 (Project Summary), 1814 (Primary HTS)]; type: functional
[10] = Luminescence Cell-Based Dose Retest to Confirm Inhibitors of Cancer Stem Cells. [Related pubchem assays (depositor defined):AID2717, AID2721]; type: functional; conditions: Homo sapiens
X-box-binding protein 1 = X-box-binding protein 1 (Homo sapiens, UniProt P17861); type: functional, Cricetulus griseus;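 also: confirmatory dose-response counter-screen serving a CHOP assay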
[11] = HepG2 cell cytotoxicity, dose response, cytotoxicity control for non-replicating M. tuberculosis project (AID 489018); type: functional; conditions: Mycobacterium tuberculosis
[12] = alpha-synuclein stem-loop translation blockers – luminescence, H4 neuroglioblastoma cells, dose confirmation, confirmation (AID 2454); type: functional, cell-based;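 also: H4 neuroglioblastoma cells carrying an alpha-synuclein 5'UTR luciferase reporter; potency for inhibition of the luciferase signal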
[13] = system: Streptococcus sp. 'group A'; experiment: Streptococcus pyogenes SK(-)GAS viability under kanamycin – luminescence, BacTiterGlo, confirmation, counter-screen for streptokinase expression inhibitor project, dose response (AID 1900); type: functional, organism-based
[14] = alpha-synuclein stem-loop luciferase translation blockers – H4 neuroglioma cells, luminescence, confirmation (AID 1988); type: functional, cell-based
cells [15] = type: functional, cell-based
cells [16] = type: functional
[17] = molecular target: T4, Heat shock factor protein 1 (Mus musculus, UniProt P38532); experiment: enhancement of HSF1-driven luciferase signal – cell-based, NIH3T3, luminescence, dose retest, confirmation (AID 435004); type: functional;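 also: stress induced by proteasome inhibitor MG132 added 30 min after compound; luciferase reporter driven by HSF1 response element in NIH3T3 cells; actives raise luminescence as potentiators of the MG132 stress response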
T4 sequence (P38532 whole entry): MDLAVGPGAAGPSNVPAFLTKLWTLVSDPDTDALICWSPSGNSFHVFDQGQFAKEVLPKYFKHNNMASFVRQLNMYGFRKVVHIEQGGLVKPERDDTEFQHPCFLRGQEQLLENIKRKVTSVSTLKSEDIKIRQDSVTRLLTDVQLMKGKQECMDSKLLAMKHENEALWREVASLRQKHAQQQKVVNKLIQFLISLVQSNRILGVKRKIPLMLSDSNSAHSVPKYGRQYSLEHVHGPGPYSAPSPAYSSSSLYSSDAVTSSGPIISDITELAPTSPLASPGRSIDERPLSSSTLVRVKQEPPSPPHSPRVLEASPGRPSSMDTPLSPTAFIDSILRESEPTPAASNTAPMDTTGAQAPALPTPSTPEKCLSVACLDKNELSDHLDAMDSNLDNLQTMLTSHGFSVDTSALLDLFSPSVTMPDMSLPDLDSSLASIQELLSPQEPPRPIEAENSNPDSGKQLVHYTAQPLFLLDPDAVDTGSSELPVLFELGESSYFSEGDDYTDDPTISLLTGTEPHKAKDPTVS

[18] = molecular target: T5, DNA repair and recombination protein RAD54-like (Homo sapiens, UniProt Q92698); experiment: RAD54 Holliday junction migration blockers – biochemical, fluorescence, cherry-picked samples, dose series, confirmation (AID 651657); type: functional
T5 sequence (Q92698 whole entry): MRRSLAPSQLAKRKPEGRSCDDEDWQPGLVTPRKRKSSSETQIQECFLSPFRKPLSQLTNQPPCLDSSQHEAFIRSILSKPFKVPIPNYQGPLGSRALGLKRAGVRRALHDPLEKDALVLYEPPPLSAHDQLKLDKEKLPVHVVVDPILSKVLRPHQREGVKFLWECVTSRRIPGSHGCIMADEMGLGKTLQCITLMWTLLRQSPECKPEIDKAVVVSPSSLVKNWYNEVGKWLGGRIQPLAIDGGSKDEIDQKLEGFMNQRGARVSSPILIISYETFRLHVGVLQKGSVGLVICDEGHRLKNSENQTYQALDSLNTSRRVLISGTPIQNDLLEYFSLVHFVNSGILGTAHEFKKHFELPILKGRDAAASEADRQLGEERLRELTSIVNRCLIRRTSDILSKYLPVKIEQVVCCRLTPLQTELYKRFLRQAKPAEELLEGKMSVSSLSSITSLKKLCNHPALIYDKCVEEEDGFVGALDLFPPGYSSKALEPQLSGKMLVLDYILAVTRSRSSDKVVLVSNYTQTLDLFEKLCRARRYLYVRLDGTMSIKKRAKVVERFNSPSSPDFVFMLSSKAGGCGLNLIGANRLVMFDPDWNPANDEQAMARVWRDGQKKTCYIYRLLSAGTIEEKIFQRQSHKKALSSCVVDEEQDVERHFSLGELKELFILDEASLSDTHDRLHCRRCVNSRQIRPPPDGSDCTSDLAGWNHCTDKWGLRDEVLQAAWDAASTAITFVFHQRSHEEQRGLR

[19] = Vero E6 cell cytotoxicity, dose response, cytotoxicity control for non-replicating M. tuberculosis project, secondary assay (AID 492998); type: functional, VeroE6; conditions: Vero C1008
Streptococcus = experiment: GAS UMAA2166 growth inhibition – luminescence, BacTiterGlo, counter-screen for streptokinase expression inhibitor project, dose response (AID 1915); type: functional, organism-based;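 also: potency for reduction of bacterial viability or growth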
[20] = HEK-293T viability loss after treatment – luminescence, T-cell screen hits, cytotoxicity control for TCR NF-kB inhibitor project, dose response (AID 489026); type: functional, cell-based;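 also: cells exposed to compound about 14 hours before the viability readout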
[21] = luciferase reporter signal suppression in cells – H4 neuroglioma cells, luminescence, dose response (AID 1990); type: functional, cell-based
[22] = THP-1 cell cytotoxicity, dose response, cytotoxicity control for non-replicating M. tuberculosis project (AID 489025); type: functional
[23] = luciferase reporter signal reduction – luminescence, H4-C neuroglioblastoma cells, dose response (AID 2458); type: functional, cell-based;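 also: H4 neuroglioblastoma cells stably carrying a luciferase reporter gene fusion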

Chain of Cyclin-dependent kinase 5/CDK5 activator 1 (Q00535 whole entry): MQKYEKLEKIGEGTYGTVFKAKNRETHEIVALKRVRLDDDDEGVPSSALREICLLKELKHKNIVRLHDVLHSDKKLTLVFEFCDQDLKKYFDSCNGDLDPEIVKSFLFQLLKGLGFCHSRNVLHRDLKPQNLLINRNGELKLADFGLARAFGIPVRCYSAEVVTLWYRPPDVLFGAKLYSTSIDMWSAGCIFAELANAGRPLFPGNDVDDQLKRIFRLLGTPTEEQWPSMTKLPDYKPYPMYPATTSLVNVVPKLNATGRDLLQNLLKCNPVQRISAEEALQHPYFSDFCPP
Chain of Cyclin-dependent kinase 5/CDK5 activator 1 (Q15078 whole entry, further chain): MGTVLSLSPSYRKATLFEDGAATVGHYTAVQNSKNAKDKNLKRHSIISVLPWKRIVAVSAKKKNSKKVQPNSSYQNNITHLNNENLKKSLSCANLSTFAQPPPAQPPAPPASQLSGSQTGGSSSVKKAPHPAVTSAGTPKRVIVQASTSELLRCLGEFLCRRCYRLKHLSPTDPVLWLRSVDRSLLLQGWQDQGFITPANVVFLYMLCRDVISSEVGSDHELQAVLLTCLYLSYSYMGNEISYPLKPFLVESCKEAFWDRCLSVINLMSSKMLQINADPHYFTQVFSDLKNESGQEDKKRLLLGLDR
Chain of X-box-binding protein 1 (P17861 whole entry): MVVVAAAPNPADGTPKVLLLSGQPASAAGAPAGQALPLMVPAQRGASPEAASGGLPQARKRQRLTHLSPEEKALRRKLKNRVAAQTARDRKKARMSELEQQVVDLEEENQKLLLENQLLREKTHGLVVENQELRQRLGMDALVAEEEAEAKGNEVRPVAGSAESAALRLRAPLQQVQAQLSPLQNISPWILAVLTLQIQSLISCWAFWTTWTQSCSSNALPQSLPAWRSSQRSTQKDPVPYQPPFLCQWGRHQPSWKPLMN
Chain of DNA dC->dU-editing enzyme APOBEC-3G (Q9HC16 whole entry): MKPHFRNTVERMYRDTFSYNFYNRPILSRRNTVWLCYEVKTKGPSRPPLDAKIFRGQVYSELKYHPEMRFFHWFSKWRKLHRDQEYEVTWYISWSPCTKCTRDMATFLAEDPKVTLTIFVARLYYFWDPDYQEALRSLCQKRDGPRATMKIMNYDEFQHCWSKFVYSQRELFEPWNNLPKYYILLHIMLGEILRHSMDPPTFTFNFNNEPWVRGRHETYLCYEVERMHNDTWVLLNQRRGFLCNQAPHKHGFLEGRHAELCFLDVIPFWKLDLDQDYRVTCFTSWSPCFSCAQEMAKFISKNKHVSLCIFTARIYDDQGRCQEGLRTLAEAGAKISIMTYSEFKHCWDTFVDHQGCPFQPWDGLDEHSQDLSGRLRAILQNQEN
Chain of Melanin-concentrating hormone receptor 1 (Q99705 whole entry, the tested form may be a part): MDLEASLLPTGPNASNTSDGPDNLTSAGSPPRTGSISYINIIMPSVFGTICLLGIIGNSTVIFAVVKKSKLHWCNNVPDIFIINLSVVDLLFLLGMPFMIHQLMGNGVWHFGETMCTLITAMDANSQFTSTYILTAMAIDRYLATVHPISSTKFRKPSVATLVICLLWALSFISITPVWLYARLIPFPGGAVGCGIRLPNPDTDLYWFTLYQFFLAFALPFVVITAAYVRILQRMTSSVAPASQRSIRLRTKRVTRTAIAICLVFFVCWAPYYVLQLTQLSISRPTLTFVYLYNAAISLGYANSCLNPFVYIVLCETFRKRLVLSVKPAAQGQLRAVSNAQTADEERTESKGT
Chain of Neuropeptides B/W receptor type 1 (P48145 whole entry): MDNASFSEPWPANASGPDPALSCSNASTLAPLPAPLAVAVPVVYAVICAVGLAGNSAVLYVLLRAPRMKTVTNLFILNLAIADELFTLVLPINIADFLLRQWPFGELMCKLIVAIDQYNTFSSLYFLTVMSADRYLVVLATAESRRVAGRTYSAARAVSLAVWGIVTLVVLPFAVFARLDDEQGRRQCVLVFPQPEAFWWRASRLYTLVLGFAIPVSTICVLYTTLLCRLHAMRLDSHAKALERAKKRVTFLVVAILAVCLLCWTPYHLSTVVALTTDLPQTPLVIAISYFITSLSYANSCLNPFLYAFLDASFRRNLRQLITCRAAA
Chain of Nucleotide-binding oligomerization domain-containing protein 2 (Q9HC29 whole entry, the tested form may be a part): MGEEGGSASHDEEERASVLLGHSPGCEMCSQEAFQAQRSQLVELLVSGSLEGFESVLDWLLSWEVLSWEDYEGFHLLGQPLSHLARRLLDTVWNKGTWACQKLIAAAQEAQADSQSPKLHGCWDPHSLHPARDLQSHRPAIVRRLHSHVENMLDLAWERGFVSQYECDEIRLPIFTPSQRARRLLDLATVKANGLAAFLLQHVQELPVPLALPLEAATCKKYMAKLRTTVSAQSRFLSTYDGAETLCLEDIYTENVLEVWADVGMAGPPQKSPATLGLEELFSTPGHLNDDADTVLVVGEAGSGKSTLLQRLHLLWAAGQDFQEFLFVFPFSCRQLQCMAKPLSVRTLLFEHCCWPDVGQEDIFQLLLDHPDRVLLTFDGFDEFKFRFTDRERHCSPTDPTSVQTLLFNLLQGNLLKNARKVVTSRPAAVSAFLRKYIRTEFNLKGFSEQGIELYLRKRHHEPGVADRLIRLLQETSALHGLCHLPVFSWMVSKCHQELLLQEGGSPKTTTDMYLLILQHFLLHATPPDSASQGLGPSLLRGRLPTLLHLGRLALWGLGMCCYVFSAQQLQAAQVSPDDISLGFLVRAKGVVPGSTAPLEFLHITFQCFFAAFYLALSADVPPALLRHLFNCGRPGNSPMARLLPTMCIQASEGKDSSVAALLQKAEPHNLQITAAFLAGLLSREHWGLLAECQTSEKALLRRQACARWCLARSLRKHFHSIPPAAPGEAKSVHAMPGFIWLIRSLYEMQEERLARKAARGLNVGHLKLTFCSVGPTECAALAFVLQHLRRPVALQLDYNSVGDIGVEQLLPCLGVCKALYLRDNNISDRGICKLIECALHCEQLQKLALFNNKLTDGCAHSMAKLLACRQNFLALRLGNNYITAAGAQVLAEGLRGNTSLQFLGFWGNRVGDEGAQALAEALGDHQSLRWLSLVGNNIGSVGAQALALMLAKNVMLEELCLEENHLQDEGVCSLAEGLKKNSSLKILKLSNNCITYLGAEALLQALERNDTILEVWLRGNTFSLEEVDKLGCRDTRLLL
Chain of Tumor necrosis factor (P01375 whole entry): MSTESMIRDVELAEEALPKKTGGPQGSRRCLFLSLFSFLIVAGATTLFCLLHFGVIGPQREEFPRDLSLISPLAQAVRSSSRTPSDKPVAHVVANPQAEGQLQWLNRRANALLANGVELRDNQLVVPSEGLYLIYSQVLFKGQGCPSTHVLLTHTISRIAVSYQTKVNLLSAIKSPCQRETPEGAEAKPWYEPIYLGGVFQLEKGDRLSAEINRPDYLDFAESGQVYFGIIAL

SMILES: O=C(NC1CCCCCCC1)C1c2ccccc2C(=O)N1Cc1cccs1 (stereo not drawn)
- IC50 [1]: > 43.8 µM (not active)
- IC50 [2]: 15.9 µM (not active)

SMILES: Cc1ccc(SCc2cc(=O)[nH]c(SCC(=O)Nc3cc(Cl)ccc3Cl)n2)cc1
- IC50 [3]: 9.95 µM (active)
- EC50 [4]: > 53 µM (inactive)
- IC50 [5]: 7.37 µM (active)
- EC50 (Streptokinase A): 42.6 µM (inconclusive)
- IC50 [6]: 5.65 µM (active)
- IC50 (Tumor necrosis factor): 8.65 µM (active)

SMILES: CC(=O)c1sc2nsc(SCCN3CCOCC3)c2c1N
- IC50 [7]: 34.4 µM (active)

SMILES: Nc1nc(Nc2ccccc2F)sc1C(=O)c1ccccc1
- AC50 [8]: 60 µM (active)
- EC50 [9]: 0.159 µM (active)

SMILES: Cc1cccc(Nc2nc(N)c([N+](=O)[O-])c(NCCO)n2)c1
- AC50 [8]: 15.2 µM (active)

SMILES: Cc1[nH]c2ccccc2c1/C=N/NC(=O)C1CC1(c1ccccc1)c1ccccc1 (stereo not drawn)
- AC50 [10]: 3.79 µM (active)
- Absolute IC50 (XBP1) (X-box-binding protein 1): 10 µM

SMILES: COC(=O)c1c(NC(=O)c2ccc([N+](=O)[O-])o2)sc2c1CCN(C(C)C)C2
- CC50 [11]: 6.72 µM (active)
- EC50 [12]: 1.52 µM (active)
- EC50 [13]: 4.11 µM (active)
- EC50 [14]: < 0.1 µM (active)
- EC50 (cells [15]): 11.8 µM (active)
- IC50 (cells [16]): 0.65 µM (active)
- EC50 [17]: 26 µM (active)
- AC50 [18]: 43.4 µM (active)
- CC50 [19]: 0.37 µM (active)
- EC50 (Streptococcus): 7.32 µM (active)
- IC50 [20]: > 80 µM (inactive)
- EC50 [21]: > 120 µM (not active)
- CC50 [22]: 1.5 µM (active)
- EC50 [23]: 1.29 µM (active)
